Source: patent US20150344457A1, “METHODS OF INHIBITING PRMT5” (EPIZYME, INC., priority 2012, published 2015)
pEC50, pIC50: −log10 of the molar value.

Key:
PRMT5/MEP50 = target: T1, PRMT5/MEP50 (Homo sapiens, UniProt O14744); assay: PRMT5 Biochemical Assay (PRMT5/MEP50 enzyme assay on peptide substrate, 3H-SAM Flashplate); conditions: Table D-2; read-out: Biochemical IC50
T1 construct: Expressed full-length human Flag-PRMT5/6His-MeP50 protein complex was purified; made in house; host or cells: Spodoptera frugiperda (SF9) insect cells, baculovirus (pDEST8)

Z-138 cells = assay: Z-138 Proliferation Assay (Cell Titer Glo, 5 days); format: cell-based; conditions: Homo sapiens, Table D-2
How it was run: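 Exponentially growing Z-138 cells (10,000 cells/ml) in RPMI 1640 with 10% FBS are exposed to nine-point 3-fold dilutions (final top concentration 20 μM, 0.2% DMSO) for 5 days at 37° C. Viability is measured as ATP by CellTiter-Glo luminescence. The 50% inhibitory concentration comes from a 4-parameter fit.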

T1 sequence (O14744 with tags, fused parts or gaps): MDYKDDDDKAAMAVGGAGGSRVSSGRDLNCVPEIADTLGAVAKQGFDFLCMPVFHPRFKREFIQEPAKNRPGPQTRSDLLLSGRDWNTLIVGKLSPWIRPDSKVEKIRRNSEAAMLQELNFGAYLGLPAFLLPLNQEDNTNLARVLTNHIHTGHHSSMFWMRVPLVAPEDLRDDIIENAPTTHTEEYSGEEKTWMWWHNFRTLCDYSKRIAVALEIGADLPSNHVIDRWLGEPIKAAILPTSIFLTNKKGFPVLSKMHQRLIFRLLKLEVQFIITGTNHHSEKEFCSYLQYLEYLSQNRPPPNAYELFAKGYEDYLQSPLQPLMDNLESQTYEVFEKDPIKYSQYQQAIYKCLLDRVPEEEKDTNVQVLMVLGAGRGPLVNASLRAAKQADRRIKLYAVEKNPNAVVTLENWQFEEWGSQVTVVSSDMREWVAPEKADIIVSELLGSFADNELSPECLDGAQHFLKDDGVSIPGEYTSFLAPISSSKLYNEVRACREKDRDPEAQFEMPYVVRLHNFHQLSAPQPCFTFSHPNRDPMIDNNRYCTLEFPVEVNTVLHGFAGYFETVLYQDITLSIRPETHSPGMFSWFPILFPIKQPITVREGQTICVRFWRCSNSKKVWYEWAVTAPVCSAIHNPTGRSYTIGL
T1 sequence (Q9BQA1 with tags, fused parts or gaps partner limits assumed): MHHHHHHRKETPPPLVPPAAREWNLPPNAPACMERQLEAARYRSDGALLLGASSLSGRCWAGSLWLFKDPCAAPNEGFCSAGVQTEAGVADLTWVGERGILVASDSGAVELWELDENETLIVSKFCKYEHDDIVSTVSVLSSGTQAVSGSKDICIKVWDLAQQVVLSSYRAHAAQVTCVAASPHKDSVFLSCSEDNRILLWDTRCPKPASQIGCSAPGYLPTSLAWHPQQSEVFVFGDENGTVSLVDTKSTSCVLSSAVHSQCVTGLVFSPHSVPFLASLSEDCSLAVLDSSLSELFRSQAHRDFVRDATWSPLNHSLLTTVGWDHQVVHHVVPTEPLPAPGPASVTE

Row | SMILES | pIC50 (PRMT5/MEP50) | pEC50 (Z-138 cells)
1 | OC(CNc1cc(-c2ncc3ccn(C4CNC4)c3n2)ccn1)CN1CCc2ccccc2C1 (stereo not shown) [Compound D254] | > 7.00 | 5.00 to 6.00
2 | OC(COc1cccc(-c2ccc3ncn(C4CNC4)c3c2)c1)CN1CCc2ccccc2C1 (stereo not shown) [Compound D208] | 6.00 to 7.00 | 5.00 to 6.00
3 | CN1CCN(C(=O)Cn2ccc3cnc(-c4ccnc(NCC(O)CN5CCc6ccccc6C5)c4)nc32)CC1 (stereo not shown) [Compound D247] | > 7.00 | 5.00 to 6.00
4 | CN1CCC(n2cnc3ccc(-c4ccnc(NCC(O)CN5CCc6ccccc6C5)c4)cc32)CC1 (stereo not shown) [Compound D252] | > 7.00 | 5.00 to 6.00
5 | CNC(=O)Cn1cnc2ccc(-c3cccc(OCC(O)CN4CCc5ccccc5C4)c3)cc21 (stereo not shown) [Compound D262] | 6.00 to 7.00 | 5.00 to 6.00
6 | CN(CC(O)CN1CCc2ccccc2C1)c1cccc(CNC2CCCC2)c1 (stereo not shown) [Compound D53] | 6.00 to 7.00 | 4.40 to 5.00
7 | OC(COc1cccc(-c2ccc3nc[nH]c3c2)c1)CN1CCc2ccccc2C1 (stereo not shown) [Compound D83] | 6.00 to 7.00 | 4.40 to 5.00
8 | Cn1cc2ccc(-c3cc(NCC(O)CN4CCc5ccccc5C4)ncn3)cc2n1 (stereo not shown) [Compound D224] | 6.00 to 7.00 | < 4.70
9 | Cn1cc2ccc(-c3cccc(OCC(O)CN4CCc5ccccc5C4)c3)nc2n1 (stereo not shown) [Compound D210] | > 7.00 | 4.40 to 5.00
10 | CN1CCN(C(=O)Cn2ccc3cnc(-c4cccc(OCC(O)CN5CCc6ccccc6C5)c4)nc32)CC1 (stereo not shown) [Compound D244] | 6.00 to 7.00 | 4.40 to 5.00
11 | CS(=O)(=O)c1ccc(-c2cccc(OCC(O)CN3CCc4ccccc4C3)c2)cc1 (stereo not shown) [Compound D63] | 6.00 to 7.00 | 4.40 to 5.00
12 | CC(C)n1cnc2ccc(-c3cccc(OCC(O)CN4CCc5ccccc5C4)c3)cc21 (stereo not shown) [Compound D81] | 6.00 to 7.00 | 4.40 to 5.00
13 | O=C(Cn1cnc2ccc(-c3cccc(OCC(O)CN4CCc5ccccc5C4)c3)cc21)N1CCCC1 (stereo not shown) [Compound D263] | 6.00 to 7.00 | 4.40 to 5.00
14 | OC(COc1cccc(-c2ccc3c(c2)OCO3)c1)CN1CCc2ccccc2C1 (stereo not shown) [Compound D59] | 6.00 to 7.00 | 4.40 to 5.00
15 | OC(COc1cccc(-c2cc(C(F)(F)F)ccc2Cl)c1)CN1CCc2ccccc2C1 (stereo not shown) [Compound D62] | 6.00 to 7.00 | 4.40 to 5.00
16 | OC(CNc1cc(-c2ccc3ncn(C4CCNCC4)c3c2)ccn1)CN1CCc2ccccc2C1 (stereo not shown) [Compound D241] | > 7.00 | 5.00 to 6.00
17 | COc1ccc(Cn2cnc3ccc(-c4cccc(OCC(O)CN5CCc6ccccc6C5)c4)cc32)cc1 (stereo not shown) [Compound D82] | 6.00 to 7.00 | 4.40 to 5.00
18 | CN1CCC(n2cnc3ccc(-c4ccnc(NCC(O)CN5CCc6ccccc6C5)c4)cc32)C1 (stereo not shown) [Compound D250] | > 7.00 | 5.00 to 6.00
19 | Cn1ncc2c1CN(c1cccc(OCC(O)CN3CCc4ccccc4C3)c1)CC2 (stereo not shown) [Compound D216] | 6.00 to 7.00 | < 4.70
20 | OC(COc1cccc(-c2ccccc2)c1)CN1CCc2ccccc2C1 (stereo not shown) [Compound D43] | 6.00 to 7.00 | < 4.70
21 | OC(CNc1cccc(-c2cccc3[nH]cnc23)c1)CN1CCc2ccccc2C1 (stereo not shown) [Compound D235] | 6.00 to 7.00 | 4.40 to 5.00
22 | Cn1cnc2cc(-c3cc(NCC(O)CN4CCc5ccccc5C4)n[nH]3)ccc21 (stereo not shown) [Compound D272] | 6.00 to 7.00 | 5.00 to 6.00

Row | SMILES | pIC50 (PRMT5/MEP50) | pEC50 (Z-138 cells)
23 | COc1ccc(-c2cccc(OCC(O)CN3CCc4ccccc4C3)c2)c(C)c1 (stereo not shown) [Compound D90] | 6.00 to 7.00 | 4.40 to 5.00
24 | O=C(Cn1ccc2cnc(-c3ccnc(NCC(O)CN4CCc5ccccc5C4)c3)nc21)N1CCCCC1 (stereo not shown) [Compound D246] | > 7.00 | 6.00 to 7.00
25 | CC1c2ccccc2CCN1CC(O)COc1cccc(-c2ccc3ncn(C)c3c2)c1 (stereo not shown) [Compound D80] | 6.00 to 7.00 | 5.00 to 6.00
26 | Cn1cc2ccc(-c3cccc(NCC(O)CN4CCc5ccccc5C4)c3)nc2n1 (stereo not shown) [Compound D261] | > 7.00 | 4.40 to 5.00
27 | OC(CNc1cc(-c2ccc3ncn(C4CCNC4)c3c2)ccn1)CN1CCc2ccccc2C1 (stereo not shown) [Compound D240] | > 7.00 | 5.00 to 6.00
28 | OC(COc1cccc(-c2ccc3c(c2)OCCO3)c1)CN1CCc2ccccc2C1 (stereo not shown) [Compound D85] | 6.00 to 7.00 | 4.40 to 5.00
29 | OC(COc1cccc(-c2cccc3c2oc2ccccc23)c1)CN1CCc2ccccc2C1 (stereo not shown) [Compound D86] | 6.00 to 7.00 | 4.40 to 5.00
30 | Cc1ncc2ccc(-c3cccc(OCC(O)CN4CCc5ccccc5C4)c3)cn12 (stereo not shown) [Compound D266] | > 7.00 | 5.00 to 6.00
31 | CC(=O)N(CC(O)CN1CCc2ccccc2C1)c1cccc(-c2ccc3ncn(C)c3c2)c1 (stereo not shown) [Compound D273] | > 7.00 | 4.40 to 5.00
32 | OC(COc1cccc(-c2ccccc2Cl)c1)CN1CCc2ccccc2C1 (stereo not shown) [Compound D92] | 6.00 to 7.00 | 4.40 to 5.00
33 | Cn1cc2ccc(-c3ccnc(NCC(O)CN4CCc5ccccc5C4)c3)cc2n1 (stereo not shown) [Compound D236] | > 7.00 | 5.00 to 6.00
34 | CC(=O)c1cccc(-c2cccc(OCC(O)CN3CCc4ccccc4C3)c2)c1 (stereo not shown) [Compound D67] | 6.00 to 7.00 | 4.40 to 5.00
35 | O=C(Cn1ccc2cnc(-c3ccnc(NCC(O)CN4CCc5ccccc5C4)c3)nc21)N1CCOCC1 (stereo not shown) [Compound D234] | > 7.00 | 6.00 to 7.00
36 | COC(COc1cccc(CNC2CCCC2)c1)CN1CCc2ccccc2C1 (stereo not shown) [Compound D32] | 5.00 to 6.00 | < 4.40
37 | O=C(Cn1ccc2cnc(-c3ccnc(NCC(O)CN4CCc5ccccc5C4)c3)nc21)N1CCCC1 (stereo not shown) [Compound D233] | > 7.00 | 5.00 to 6.00
38 | OC(COc1cccc(-c2ccc3cn[nH]c3c2)c1)CN1CCc2ccccc2C1 (stereo not shown) [Compound D58] | 6.00 to 7.00 | 4.40 to 5.00
39 | Cn1cnc2cc(-c3cccc(OCC(O)CN4CCc5ccccc5C4)c3)ccc21 (stereo not shown) [Compound D60] | 6.00 to 7.00 | 4.40 to 5.00
40 | OC(CNc1cc(-c2ccc3ncn(C4COC4)c3c2)ccn1)CN1CCc2ccccc2C1 (stereo not shown) [Compound D265] | > 7.00 | 5.00 to 6.00
41 | Cn1cnc2ccc(-c3cc(NCC(O)CN4CCc5ccccc5C4)n[nH]3)cc21 (stereo not shown) [Compound D271] | 6.00 to 7.00 | < 4.70
42 | Cn1ncc2ccc(-c3ccnc(NCC(O)CN4CCc5ccccc5C4)c3)cc21 (stereo not shown) [Compound D226] | > 7.00 | 5.00 to 6.00
43 | OC(COc1ccc(C2CCCNC2)cc1)CN1CCc2ccccc2C1 (stereo not shown) [Compound D47] | > 7.00 | 5.00 to 6.00
44 | OC(CNc1cccc(CNC2CCCC2)c1)CN1CCc2ccccc2C1 (stereo not shown) [Compound D39] | 6.00 to 7.00 | < 4.70

Row | SMILES | pIC50 (PRMT5/MEP50) | pEC50 (Z-138 cells)
45 | Cn1cnc2ccc(-c3ccnc(NCC(O)CN4CCc5ccccc5C4)c3)nc21 (stereo not shown) [Compound D238] | > 7.00 | 5.00 to 6.00
46 | CC(=O)N1CCC(n2ccc3cnc(-c4ccnc(NCC(O)CN5CCc6ccccc6C5)c4)nc32)CC1 (stereo not shown) [Compound D256] | > 7.00 | 6.00 to 7.00
47 | CC(=O)N1CCC(n2cnc3ccc(-c4ccnc(NCC(O)CN5CCc6ccccc6C5)c4)cc32)CC1 (stereo not shown) [Compound D242] | 6.00 to 7.00 | 5.00 to 6.00
48 | Cn1cnc2ccc(-c3ccnc(NC[C@H](O)CN4CCc5ccccc5C4)c3)cc21 [Compound D275] | > 7.00 | 5.00 to 6.00
49 | OC(COc1cccc(-c2cccc3cccnc23)c1)CN1CCc2ccccc2C1 (stereo not shown) [Compound D65] | > 7.00 | 4.40 to 5.00
50 | OC(COc1cccc(-c2ccc3ncn(C4CCNCC4)c3c2)c1)CN1CCc2ccccc2C1 (stereo not shown) [Compound D220] | > 7.00 | 5.00 to 6.00
51 | OCc1cccc(-c2cccc(OCC(O)CN3CCc4ccccc4C3)c2)c1 (stereo not shown) [Compound D72] | 6.00 to 7.00 | 4.40 to 5.00
52 | CC(=O)N1CCC(n2ccc3cnc(-c4cccc(OCC(O)CN5CCc6ccccc6C5)c4)nc32)CC1 (stereo not shown) [Compound D243] | 6.00 to 7.00 | 5.00 to 6.00
53 | COc1cccc(-c2cccc(OCC(O)CN3CCc4ccccc4C3)c2)c1 (stereo not shown) [Compound D74] | 6.00 to 7.00 | 4.40 to 5.00
54 | OC(COc1cccc(-c2cccc3[nH]cnc23)c1)CN1CCc2ccccc2C1 (stereo not shown) [Compound D223] | > 7.00 | 4.40 to 5.00
55 | O=C(Cn1cnc2ccc(-c3cccc(OCC(O)CN4CCc5ccccc5C4)c3)cc21)N1CCOCC1 (stereo not shown) [Compound D264] | 6.00 to 7.00 | 5.00 to 6.00
56 | OC(COc1cccc(-c2ccc3nn[nH]c3c2)c1)CN1CCc2ccccc2C1 (stereo not shown) [Compound D84] | 6.00 to 7.00 | 5.00 to 6.00
57 | OC(COc1cccc(-c2ncc3ccn(C4CCNCC4)c3n2)c1)CN1CCc2ccccc2C1 (stereo not shown) [Compound D253] | > 7.00 | 5.00 to 6.00
58 | CN1CC(n2cnc3ccc(-c4cccc(OCC(O)CN5CCc6ccccc6C5)c4)cc32)C1 (stereo not shown) [Compound D218] | > 7.00 | 5.00 to 6.00
59 | OC(COc1cccc(-c2cccc(F)c2F)c1)CN1CCc2ccccc2C1 (stereo not shown) [Compound D68] | 6.00 to 7.00 | 4.40 to 5.00
60 | Cn1cnc2ccc(-c3cccc(OCC(O)CN4CCc5ccccc5C4)c3)cc21 (stereo not shown) [Compound D45] | > 7.00 | 5.00 to 6.00
61 | OC(COc1cccc(-c2ccc3ncn(C4COC4)c3c2)c1)CN1CCc2ccccc2C1 (stereo not shown) [Compound D269] | > 7.00 | 4.40 to 5.00
62 | O[C@@H](COc1cccc(-c2cccc3cccnc23)c1)CN1CCc2ccccc2C1 [Compound D257] | > 7.00 | 5.00 to 6.00
63 | COc1ccc(-c2cccc(OCC(O)CN3CCc4ccccc4C3)c2)c(Cl)c1 (stereo not shown) [Compound D88] | 6.00 to 7.00 | 4.40 to 5.00
64 | CC(Oc1cccc(CNC2CCCC2)c1)C(O)CN1CCc2ccccc2C1 (stereo not shown) [Compound D49] | 6.00 to 7.00 | 5.00 to 6.00
65 | OC(CNc1cc(-c2ncc3ccn(C4CCNCC4)c3n2)ccn1)CN1CCc2ccccc2C1 (stereo not shown) [Compound D255] | > 7.00 | 6.00 to 7.00
